# Biological target: angiotensin-converting enzyme (ACE) (Homo sapiens, UniProt P12821)
# Assay: BioSelact on-line ACE inhibitor bioassay (Kiadis)
# Type: biochemical
# Details: determined by the BioSelect method of Kiadis of aqueous extracts of the fat+cell fraction
# Description: Supernatants of whole fermentations, whey liquids, chloroform and aqueous extracts from fat/cell fractions were all pH adjusted before analysis. First the solutions were adjusted to pH 3. After centrifugation the precipitate was removed. During a second step the pH was adjusted to 7.5 (pH of bioassay). Again precipitate was removed from the solution after centrifugation. The remaining supernatants were used for BioSelact analysis.
# 250 mg of fat/cell preparation was extracted with 250 μl MilliQ. The solution was positioned on a flat shaker for 2 hours at room temperature. The fat/cell fraction was removed after extraction by centrifugation.
# During the first step of the BioSelact analysis, the aqueous solutions were analyzed by applying a general chromatographic gradient: 5-95% MeOH/0.05% TFA in 75 min. For these general analyses a Phenomenex, LUNA C18(2), 5 μm, 2*250 mm analytical column was used. The chromatographic separation was carried out at a flow rate of 0.2 ml/min at ambient temperature. The injection volume was 250 μl. The organic modifier concentration in the Liquid Chromatography (LC) effluent was decreased to bioassay compatible levels by performing continuous dilution using the BioGradient composition from Kiadis. […]
# After completing the first general chromatographic ‘sweep’, the presence of bioactivity in each sample was carefully assessed by the Kiadis ACE inhibitor assay. […]
# Sequence of angiotensin-converting enzyme (ACE) (P12821 30-1306, species assumed): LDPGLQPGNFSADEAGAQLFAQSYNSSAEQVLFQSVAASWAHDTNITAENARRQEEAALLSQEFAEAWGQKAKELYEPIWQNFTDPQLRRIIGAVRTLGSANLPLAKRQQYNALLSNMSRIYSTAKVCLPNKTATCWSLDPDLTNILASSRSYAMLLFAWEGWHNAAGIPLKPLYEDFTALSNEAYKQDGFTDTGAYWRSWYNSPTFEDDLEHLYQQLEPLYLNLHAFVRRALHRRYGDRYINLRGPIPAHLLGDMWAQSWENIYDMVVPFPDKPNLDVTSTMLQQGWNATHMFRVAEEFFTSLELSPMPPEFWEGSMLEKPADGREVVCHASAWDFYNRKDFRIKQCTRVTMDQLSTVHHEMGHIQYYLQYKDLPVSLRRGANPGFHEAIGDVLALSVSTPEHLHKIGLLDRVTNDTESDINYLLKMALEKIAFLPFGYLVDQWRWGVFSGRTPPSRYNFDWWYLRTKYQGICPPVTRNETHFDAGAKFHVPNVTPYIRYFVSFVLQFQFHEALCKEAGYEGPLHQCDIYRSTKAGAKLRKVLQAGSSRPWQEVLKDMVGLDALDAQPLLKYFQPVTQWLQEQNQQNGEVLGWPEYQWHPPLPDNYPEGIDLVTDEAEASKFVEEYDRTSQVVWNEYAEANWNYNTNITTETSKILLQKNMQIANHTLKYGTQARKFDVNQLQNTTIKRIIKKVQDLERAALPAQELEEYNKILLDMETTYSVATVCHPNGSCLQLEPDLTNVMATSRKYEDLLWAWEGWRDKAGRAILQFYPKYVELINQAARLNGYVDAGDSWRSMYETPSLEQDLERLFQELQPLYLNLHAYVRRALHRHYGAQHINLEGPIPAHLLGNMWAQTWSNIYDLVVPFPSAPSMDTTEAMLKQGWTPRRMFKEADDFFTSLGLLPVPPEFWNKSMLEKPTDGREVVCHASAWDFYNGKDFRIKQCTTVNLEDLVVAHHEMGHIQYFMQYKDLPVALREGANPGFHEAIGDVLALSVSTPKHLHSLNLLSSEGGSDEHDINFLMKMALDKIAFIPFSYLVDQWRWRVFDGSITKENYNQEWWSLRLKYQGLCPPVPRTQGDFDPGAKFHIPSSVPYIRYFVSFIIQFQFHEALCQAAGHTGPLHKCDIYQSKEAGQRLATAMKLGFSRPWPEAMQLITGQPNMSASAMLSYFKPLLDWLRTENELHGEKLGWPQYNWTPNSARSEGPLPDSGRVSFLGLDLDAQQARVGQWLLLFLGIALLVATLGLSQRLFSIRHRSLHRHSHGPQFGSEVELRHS
substance,measurement,value
Ile-Pro-Pro [IPP],Relative inhibition (relative ACE inhibitory activity),0.7%

# Reference: US20080207529A1, “Isolated Dipeptides with Ace Inhibitor Effect” (CHR. HANSEN A/S, priority 2005, published 2008)
